The values that follow come from patent US20250171438A1 (Agios Pharmaceuticals, Inc., priority 2022, published 2025).

The target in the first experiment is T1, human PAH with the R408W mutation (Homo sapiens, UniProt P00439, R408W).
T1 construct: expressed in transfected cells
T1 sequence (P00439 1-452 R408W): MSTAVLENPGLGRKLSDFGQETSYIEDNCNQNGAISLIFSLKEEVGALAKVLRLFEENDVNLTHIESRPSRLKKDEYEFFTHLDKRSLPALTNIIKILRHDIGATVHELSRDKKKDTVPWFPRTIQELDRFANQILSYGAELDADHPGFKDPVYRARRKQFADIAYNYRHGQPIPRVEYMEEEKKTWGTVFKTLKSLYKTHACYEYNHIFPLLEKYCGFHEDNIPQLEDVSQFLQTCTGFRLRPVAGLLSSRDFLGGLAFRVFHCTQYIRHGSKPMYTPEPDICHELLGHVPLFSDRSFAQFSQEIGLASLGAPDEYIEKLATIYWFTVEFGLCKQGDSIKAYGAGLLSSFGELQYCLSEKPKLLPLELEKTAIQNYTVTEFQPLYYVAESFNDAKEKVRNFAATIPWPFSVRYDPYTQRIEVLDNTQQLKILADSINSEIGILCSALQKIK
Kind of experiment: Cell Based Phenylalanine Flux Assay. Particulars: A375 cells expressing human R408W PAH; 24 hrs compound incubation; 13C-Tyrosine by LC-MS; average where tested multiple times; read-out: AC50.
Method: Compounds were resuspended in DMSO, and 2-fold serial dilutions were performed to generate a 10-point dose curve. Compounds were added to plated cells in a total volume of 100 pal, and a final DMSO concentration of 0.5%. Each compound was tested in duplicate. Following compound addition, cells were placed in a 5% CO2, 37° C. tissue culture incubator for 24 hrs. After the incubation period, 20 μM sepiapterin and 800 μM 13C9,15N-Phenylalanine were added. After 4 hours, cell media was removed. An aliquot of 10 μl of cell media was combined with 200 μl of extraction buffer (80% acetonitrile/20% H2O) for each well. Determination of ^13C-Tyrosine concentration was assessed by liquid chromatography mass spectrometry.
Where a compound was tested multiple times, the average value of the tests is reported.
Take `O=C(c1nnc(-c2ccc(C(F)(F)F)cc2)o1)N1CCc2[nH]cnc2[C@@H]1c1nc2ccccc2s1` [Example 1767, (R)-(4-(benzo[d]thiazol-2-yl)-6,7-dihydro-1H-imidazo[4,5-c]pyridin-5(4H)-yl)(5-(4-(trifluoromethyl)phenyl)-1,3,4-oxadiazol-2-yl)methanone]: the AC50 was 1 to 5 µM.

Take `O=C(CC1CCC1)N1CCc2[nH]cnc2[C@H]1c1nc2ccccc2s1` [Example 1307]: the AC50 is under 0.5 µM. The same measure, in the same setting: the value for `COCc1ccc2c(C(=O)N3CCc4[nH]cnc4[C@H]3c3nc4ccccc4s3)c(C#N)nn2c1` [Example 1866, (S)-3-(4-(benzo[d]thiazol-2-yl)-4,5,6,7-tetrahydro-1H-imidazo[4,5-c]pyridine-5-carbonyl)-6-(methoxymethyl)pyrazolo[1,5-a]pyridine-2-carbonitrile] was under 0.5 µM; that for `Cc1cccc2sc([C@@H]3c4nc[nH]c4CCN3C(=O)c3ocnc3C(F)(F)F)nc12` [Example 2009, (S)-(4-(4-methylbenzo[d]thiazol-2-yl)-6,7-dihydro-1H-imidazo[4,5-c]pyridin-5(4H)-yl)(4-(trifluoromethyl)oxazol-5-yl)methanone] was under 0.5 µM; that for `O=C(c1cnn(-c2ccc(F)cc2)c1)N1CCc2[nH]cnc2[C@@H]1c1nc2ccccc2s1` [Example 1412, (R)-(4-(benzo[d]thiazol-2-yl)-6,7-dihydro-1H-imidazo[4,5-c]pyridin-5(4H)-yl)(1-(4-fluorophenyl)-1H-pyrazol-4-yl)methanone] was 1 to 5 µM. The same measure, in the same setting: the result for `O=C(c1nccs1)N1CCc2[nH]cnc2[C@@H]1c1nc2ccc(Br)cc2[nH]1` [Example 932, (R)-(4-(6-bromo-1H-benzo[d]imidazol-2-yl)-6,7-dihydro-1H-imidazo[4,5-c]pyridin-5(4H)-yl)(thiazol-2-yl)methanone] reads over 5 µM; that for `C=Cc1ccc2c(C(=O)N3CCc4[nH]cnc4[C@H]3c3nc4ccccc4s3)cnn2c1` [Example 1231], 0.5 to 1 µM. Same read-out and setting: the value for `O=C(c1nnc(N2CCC(F)CC2)o1)N1CCc2[nH]cnc2[C@H]1c1nc2ccccc2s1` [Example 1591] was under 0.5 µM; that for `Cn1cc(-c2ncc(C(=O)N3CCc4[nH]cnc4[C@H]3c3nc4c(F)cccc4s3)o2)cn1` [Example 1346, (S)-(4-(4-fluorobenzo[d]thiazol-2-yl)-6,7-dihydro-1H-imidazo[4,5-c]pyridin-5(4H)-yl)(2-(1-methyl-1H-pyrazol-4-yl)oxazol-5-yl)methanone] was 0.5 to 1 µM. For `Cn1ccc(-c2nnc(C(=O)N3CCc4[nH]cnc4[C@H]3c3nc4c(F)cccc4s3)o2)n1` [Example 1826, (S)-(4-(4-fluorobenzo[d]thiazol-2-yl)-6,7-dihydro-1H-imidazo[4,5-c]pyridin-5(4H)-yl)(5-(1-methyl-1H-pyrazol-3-yl)-1,3,4-oxadiazol-2-yl)methanone], the AC50 was under 0.5 µM. Take `Cc1nn2ccccc2c1C(=O)N1CCc2[nH]cnc2[C@@H]1c1nc2ccccc2s1` [Example 1166, (R)-(4-(benzo[d]thiazol-2-yl)-6,7-dihydro-1H-imidazo[4,5-c]pyridin-5(4H)-yl)(2-methylpyrazolo[1,5-a]pyridin-3-yl)methanone]: the AC50 was in the range of 0.5 to 1 µM. The same measure, in the same setting: the result for `O=C(c1cnn2ccccc12)N1CCc2nc[nH]c2[C@@H]1c1nc2c(F)cccc2s1` [Example 1112, (R)-(4-(4-fluorobenzo[d]thiazol-2-yl)-6,7-dihydro-3H-imidazo[4,5-c]pyridin-5(4H)-yl)(pyrazolo[1,5-a]pyridin-3-yl)methanone] reads 1 to 5 µM; that for `O=C(c1cnn(CC2CC2)c1Cl)N1CCc2[nH]cnc2[C@H]1c1nc2c(F)cccc2s1` [Example 1971, (S)-(5-chloro-1-(cyclopropylmethyl)-1H-pyrazol-4-yl)(4-(4-fluorobenzo[d]thiazol-2-yl)-6,7-dihydro-1H-imidazo[4,5-c]pyridin-5(4H)-yl)methanone], 0.5 to 1 µM.

Still in this experiment, the particulars now being: A375 cells expressing human R408W PAH; 24 hrs with compound; 13C-Tyrosine by LC-MS; average where tested multiple times; read-out: AC50.
Regarding `Cn1nc(CC#N)nc1C(=O)N1CCc2[nH]cnc2C1c1nc2c(F)cccc2s1` (stereo not drawn), the AC50 is over 5 µM.

For `Cn1ccc(C(=O)N2CCc3[nH]cnc3C2c2nc3c(F)cccc3s2)n1` (stereo not drawn), the AC50 fell in the range of 1 to 5 µM.

What is called AC50 is the midpoint of the concentration-response curve, whichever way the signal moves.
